# Source: PubChem BioAssay AID1963448 (Molecular Pharmacology Branch, DTP, NCI, 2024)
# System: 616215-338-R-J1-PDC complex spheroid growth, % test/control
# Test: Anticancer human tumor 616215-338-R-J1-PDC patient-derived colon adenocarcinoma cell line growth inhibition [Asc]
# Settings: for IC50: curve of first compound; for viability, T/C: stronger effect = lower value
# In short: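 Complex spheroids combining tumor cells with HUVEC endothelial cells and human MSCs, at 37 degrees C, 5% CO2; agents tested alone or combined, half-log dilutions from at or near clinical Cmax, or 10 microM if Cmax unknown.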
# 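Also: spheroids exposed to agents for seven days before readout.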
# 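For viability, T/C in this document: 100% = DMSO vehicle control viability.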
structure (smiles),measurement,setting,value
NC(=O)C(=Cn1cnc(-c2cc(C(F)(F)F)cc(C(F)(F)F)c2)n1)c1cncnc1 + Cc1c(S(C)(=O)=O)c(-c2cc(F)cc(N3CCN(c4ccc(NS(=O)(=O)c5ccc(NC(CCN6CCC(C(=O)OCCCP(=O)(O)O)CC6)CSc6ccccc6)c(S(=O)(=O)C(F)(F)F)c5)cc4)CC3)c2)c(-c2ccc(Cl)cc2)n1C(C)C,IC50,second compound 0.1 µM,> 0.3 µM
same,IC50,second compound 0.316 µM,0.143 µM
same,IC50,second compound 1 µM,0.0366 µM
same,IC50,second compound 3.16 µM,< 0.000949 µM
same,IC50,second compound 10 µM,< 0.000949 µM
same,"viability, T/C","second compound 0.1 µM, first compound 0.000949 µM",91.7%
same,"viability, T/C","second compound 0.1 µM, first compound 0.003 µM",91.1%
same,"viability, T/C","second compound 0.1 µM, first compound 0.00949 µM",87.2%
same,"viability, T/C","second compound 0.1 µM, first compound 0.03 µM",91.7%
same,"viability, T/C","second compound 0.1 µM, first compound 0.0949 µM",81%
same,"viability, T/C","second compound 0.1 µM, first compound 0.3 µM",71.8%
same,"viability, T/C","second compound 0.316 µM, first compound 0.000949 µM",95.6%
same,"viability, T/C","second compound 0.316 µM, first compound 0.003 µM",97.5%
same,"viability, T/C","second compound 0.316 µM, first compound 0.00949 µM",89.3%
same,"viability, T/C","second compound 0.316 µM, first compound 0.03 µM",78.8%
same,"viability, T/C","second compound 0.316 µM, first compound 0.0949 µM",64.7%
same,"viability, T/C","second compound 0.316 µM, first compound 0.3 µM",26.7%
same,"viability, T/C","second compound 1 µM, first compound 0.000949 µM",67%
same,"viability, T/C","second compound 1 µM, first compound 0.003 µM",71.3%
same,"viability, T/C","second compound 1 µM, first compound 0.00949 µM",68.5%
same,"viability, T/C","second compound 1 µM, first compound 0.03 µM",55.9%
same,"viability, T/C","second compound 1 µM, first compound 0.0949 µM",20.6%
same,"viability, T/C","second compound 1 µM, first compound 0.3 µM",1.76%
same,"viability, T/C","second compound 3.16 µM, first compound 0.000949 µM",41.7%
same,"viability, T/C","second compound 3.16 µM, first compound 0.003 µM",42.7%
same,"viability, T/C","second compound 3.16 µM, first compound 0.00949 µM",34.4%
same,"viability, T/C","second compound 3.16 µM, first compound 0.03 µM",24.3%
same,"viability, T/C","second compound 3.16 µM, first compound 0.0949 µM",2.24%
same,"viability, T/C","second compound 3.16 µM, first compound 0.3 µM",0.67%
same,"viability, T/C","second compound 10 µM, first compound 0.000949 µM",27.9%
same,"viability, T/C","second compound 10 µM, first compound 0.003 µM",25%
same,"viability, T/C","second compound 10 µM, first compound 0.00949 µM",19.2%
same,"viability, T/C","second compound 10 µM, first compound 0.03 µM",6.13%
same,"viability, T/C","second compound 10 µM, first compound 0.0949 µM",0.4%
same,"viability, T/C","second compound 10 µM, first compound 0.3 µM",0.25%
